In US20040248809A1, “Use of antagonists of the bradykinin B2 receptor for the treatment of osteoarthrosis” (Aventis Pharma Deutschland GmbH, priority 2003, published 2004):

Tested on: MMP3 expression in the chondrosarcoma cell line SW1353
Experiment: MMP-3 release from SW cells (MMP3 ELISA of cell culture supernatant)
Type: cell-based
Details: for MMP-3 release MW (OD 450 nm) / Relative values based on starting value: SW cells; for Relative values based on starting value: IL1α alone = 100
Experimental: For the analysis of the disease-modifying action of HOE140 in a cell culture model relevant to cartilage, the MMP3 expression was analyzed in the chondrosarcoma cell line SW1353 (ATCC: HTB 94). For the experiments, SW1353 cells were cultured under standard conditions (37° C., 5% CO2) in DMEM-Glutamax with 10% of fetal calf serum (FCS) in plastic culture bottles. After detrypsinization of the cells, 50,000 cells were inoculated per well of a 96-well flat-bottom plate in medium without FCS and preincubated with the compound HOE140 in an incubator. After one hour, the cells were stimulated by addition of human IL1-β (0.1 ng/mL, Roche) in a total volume of 300 μL. After incubation for 24 hours under standard conditions, the cell culture supernatant was taken off, centrifuged for 5 minutes and frozen at −20° C. until further analysis. The MMP3 expression in the cell culture supernatants was then analyzed by means of a commercial MMP3 ELISA test system (Amersham) according to the instructions of the manufacturer. In parallel to this, a WST cytotoxicity test was carried out with the remaining cells. For this the commercial test system of Roche was used and the measurement was carried out according to the instructions of the >manufacturer's protocol. […] Bradykinin increases the MMP3 release by more than 30%.

[1] = IL1α + bradykinin (0.1 μM) + 0.05 μM HOE140
[2] = IL1α + bradykinin (0.1 μM) + 0.1 μM HOE140
[3] = IL1α + bradykinin (0.1 μM) + 0.5 μM HOE140
[4] = IL1α + bradykinin (0.1 μM) + 1 μM HOE140

## D-arginyl-L-arginyl-L-prolyl-L-prolylglycyl-3-(2-thienyl)-L-alanyl-L-seryl-(3R)-1,2,3,4-tetrahydro-3-isoquinolinecarbonyl-(2S,3aS,7aS)-octahydro-1H-indole-2-carbonyl-L-arginine [HOE140]
SW1353 cells, IL1 + bradykinin
  inhibition of the bradykinin-increased release of MMP3 (in words): inhibited by HOE140 in a dose-dependent manner
[1]
  MMP-3 release MW (OD 450 nm): 458 OD 450 nm
  Relative values based on starting value: 139.6
[2]
  MMP-3 release MW (OD 450 nm): 371 OD 450 nm
  Relative values based on starting value: 113.1
[3]
  MMP-3 release MW (OD 450 nm): 309 OD 450 nm
  Relative values based on starting value: 94.2
[4]
  MMP-3 release MW (OD 450 nm): 306 OD 450 nm
  Relative values based on starting value: 93.3
